From patent US20250235543A1, “MODIFIED PROTEINS AND PROTEIN DEGRADERS” (Cullgen (Shanghai), Inc., priority 2021, published 2025)

Assays:
DDB1 [1] = molecular target: T1, DDB1 (Homo sapiens, UniProt Q16531, D705G/DEL396-460/DEL463-701/I704S/T703N); assay: Surface plasmon resonance (SPR) binding of heterobifunctional compounds to DDB1; conditions: purified DDB1ΔBPB immobilized on CM5 chip, multi-cycle kinetic format, steady state model, read-out: binding affinities (Kd) to DDB1
T1 construct: His6 (N, cleaved yes); TEV protease cleavage site (N, cleaved yes); made in house; host or cells: SF9 insect cells, Bac-to-Bac baculovirus, pFastBacHTB vector
T1 sequence (Q16531 other isoform, or with tags, fused parts or gaps DEL396-460/DEL463-701/T703N/I704S/D705G): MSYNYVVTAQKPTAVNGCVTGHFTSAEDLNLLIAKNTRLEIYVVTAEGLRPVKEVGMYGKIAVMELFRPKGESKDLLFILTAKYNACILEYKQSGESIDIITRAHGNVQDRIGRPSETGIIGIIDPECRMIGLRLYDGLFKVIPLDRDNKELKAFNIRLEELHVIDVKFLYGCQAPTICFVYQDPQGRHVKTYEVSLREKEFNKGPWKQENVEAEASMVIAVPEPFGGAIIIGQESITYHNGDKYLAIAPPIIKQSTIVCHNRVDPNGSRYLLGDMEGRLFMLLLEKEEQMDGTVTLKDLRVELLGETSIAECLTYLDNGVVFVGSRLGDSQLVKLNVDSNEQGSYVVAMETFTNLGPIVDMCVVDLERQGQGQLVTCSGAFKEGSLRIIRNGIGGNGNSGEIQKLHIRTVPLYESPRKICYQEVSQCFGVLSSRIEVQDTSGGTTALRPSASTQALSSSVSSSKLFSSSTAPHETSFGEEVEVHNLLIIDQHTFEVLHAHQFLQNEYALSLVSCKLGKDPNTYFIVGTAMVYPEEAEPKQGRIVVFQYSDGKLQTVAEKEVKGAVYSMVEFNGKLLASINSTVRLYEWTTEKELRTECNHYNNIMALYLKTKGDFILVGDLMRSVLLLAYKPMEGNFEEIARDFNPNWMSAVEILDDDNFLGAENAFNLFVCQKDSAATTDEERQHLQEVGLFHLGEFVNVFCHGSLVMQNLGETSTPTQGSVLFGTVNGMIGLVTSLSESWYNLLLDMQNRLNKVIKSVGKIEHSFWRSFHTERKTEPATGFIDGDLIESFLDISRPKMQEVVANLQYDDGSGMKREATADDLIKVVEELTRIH
Description: To determine whether the addition of linkers and target binders to the DDB1 ligands affected the binding to DDB1 E3 ligase, the binding affinities of heterobifunctional compounds to DDB1 was evaluated using a surface plasmon resonance (SPR) assay. Purified DDB1ΔBPB proteins were immobilized on a CM5 sensor chip and a dose range of compound solutions were injected in multi-cycle kinetic format. Data was fit to steady state model and gave equivalent dissociation constants (Kd).

[2] = tested on: cyclin D1, cyclin D2, cyclin D3; assay: Immunoblot of cyclin D protein levels in Calu-1 (and BT-549) cells; format: cell-based; conditions: immunoblot, Calu-1 / BT-549 cells, 16 hours, dose range
Description: Specific exemplary heterobifunctional compounds were characterized in Calu-1, BT-549 and other cells. Cells that express cyclin D1-3 and CDK4/6 proteins were treated with heterobifunctional compounds disclosed herein at indicated concentrations for 16 hours. Cells were collected, lysed and subject to immunoblotting using an antibody specific to cyclin D1, cyclin D2, cyclin D3, CDK4, CDK6 or phosphorylated R^b proteins. Tubulin or GAPDH was used as the loading control. DMSO treatment was used as the negative control.
In a time-course study, Calu-1 cells were treated with 500 nM CPD-002, or 100 nM CPD-031 for indicated period of time prior to immunoblotting (FIG. 4A-4B).
The heterobifunctional compound-mediated degradation was dependent on the ubiquitin-proteasome system and cullin E3 ligase. […] In addition, DDB1 E3 ligase was critical for the degrader-induced cyclin D downregulation. Depletion of DDB1 using CRISPR-Cas9 technology attenuated the cyclin D degradation induced by CPD-031 (FIG. 5C).
(§1) To verify that heterobifunctional compound-mediated degradation is dependent on the binding to CDK4-cyclin D complex, we designed three negative control compounds, CPD-042, CPD-049 and CPD-380, which are derived from CPD-002 CPD-031 and CPD-343, respectively. These three control compounds bear the same DDB1 ligand and linker as their corresponding active heterobifunctional compounds but with modified warheads to impair the binding of the control compounds to CDK4. […] However, the binding to CDK4 is not sufficient for cyclin D degradation. Two cereblon (CRBN)-recruiting reference heterobifunctional compounds, CP-10 (Su, J Med Chem, 2019; CAS No.: 2366268-80-4) and BSJ-03-123 (Brand, Cell Chem Biol, 2019; CAS No.: 2361493-16-3) were analyzed in Calu-1 cells.

DDB1 [3] = molecular target: T1, DDB1; assay: SPR binding assay to immobilized DDB1ΔBPB; conditions: binding affinities to DDB1
How it was run: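 Untagged Sf9-expressed DDB1ΔBPB (BPB domain aa 396-705 replaced by GNGNSG linker) amine-coupled to CM5 chip at 10,000-12,000 RU; 25° C, HBS-EP pH 7.4 with 5% DMSO. Compounds injected multi-cycle at 100 μM-3.125 μM (6-point two-fold); double-referenced, solvent-corrected data fit to steady-state model for Kd.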

cyclin D1 = assay: Cyclin D1 percentage degradation in Calu-1 cells (immunoblotting); format: cell-based; conditions: 200 nM, 16 hours
How it was run: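 Cells were rinsed once in cold PBS and lysed in cold RIPA buffer containing protease and phosphatase inhibitors, with gentle agitation at 4° C. for 30 min. Lysates were spun at 13,000 rpm for 10 min at 4° C., protein was measured by BCA, and samples were boiled in Laemmli buffer at 99° C. for 5 min before SDS-PAGE immunoblotting.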

CDK4 = molecular target: T2, CDK4 (Homo sapiens, UniProt P11802); assay: CDK4 percentage degradation in Calu-1 cells (immunoblotting); format: cell-based; conditions: Calu-1 cells, 200 nM, 16 hours; read-out: CDK4 Degradation (200 nM)
T2 construct: endogenous in cells; host or cells: Calu-1
T2 sequence (P11802 2-303 limits assumed): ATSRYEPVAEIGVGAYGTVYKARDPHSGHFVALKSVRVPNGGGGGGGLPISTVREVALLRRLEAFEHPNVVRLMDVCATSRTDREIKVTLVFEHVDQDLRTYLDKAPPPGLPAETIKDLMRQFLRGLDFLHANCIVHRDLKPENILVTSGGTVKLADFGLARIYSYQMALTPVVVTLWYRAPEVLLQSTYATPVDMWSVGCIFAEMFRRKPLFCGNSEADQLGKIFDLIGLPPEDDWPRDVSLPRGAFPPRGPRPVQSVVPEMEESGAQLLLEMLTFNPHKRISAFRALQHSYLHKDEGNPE
T2 sequence (P24385 whole entry partner): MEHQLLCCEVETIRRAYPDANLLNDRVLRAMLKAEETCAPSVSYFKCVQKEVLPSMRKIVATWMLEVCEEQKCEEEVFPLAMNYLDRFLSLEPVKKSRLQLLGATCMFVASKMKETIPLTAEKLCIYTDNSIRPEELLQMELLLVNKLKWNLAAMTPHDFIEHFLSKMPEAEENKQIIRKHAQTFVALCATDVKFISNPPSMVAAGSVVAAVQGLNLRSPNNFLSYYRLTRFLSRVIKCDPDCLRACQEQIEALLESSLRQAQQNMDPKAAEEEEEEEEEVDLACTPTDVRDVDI
T2 sequence (Q16531 2-1140 limits assumed, further chain): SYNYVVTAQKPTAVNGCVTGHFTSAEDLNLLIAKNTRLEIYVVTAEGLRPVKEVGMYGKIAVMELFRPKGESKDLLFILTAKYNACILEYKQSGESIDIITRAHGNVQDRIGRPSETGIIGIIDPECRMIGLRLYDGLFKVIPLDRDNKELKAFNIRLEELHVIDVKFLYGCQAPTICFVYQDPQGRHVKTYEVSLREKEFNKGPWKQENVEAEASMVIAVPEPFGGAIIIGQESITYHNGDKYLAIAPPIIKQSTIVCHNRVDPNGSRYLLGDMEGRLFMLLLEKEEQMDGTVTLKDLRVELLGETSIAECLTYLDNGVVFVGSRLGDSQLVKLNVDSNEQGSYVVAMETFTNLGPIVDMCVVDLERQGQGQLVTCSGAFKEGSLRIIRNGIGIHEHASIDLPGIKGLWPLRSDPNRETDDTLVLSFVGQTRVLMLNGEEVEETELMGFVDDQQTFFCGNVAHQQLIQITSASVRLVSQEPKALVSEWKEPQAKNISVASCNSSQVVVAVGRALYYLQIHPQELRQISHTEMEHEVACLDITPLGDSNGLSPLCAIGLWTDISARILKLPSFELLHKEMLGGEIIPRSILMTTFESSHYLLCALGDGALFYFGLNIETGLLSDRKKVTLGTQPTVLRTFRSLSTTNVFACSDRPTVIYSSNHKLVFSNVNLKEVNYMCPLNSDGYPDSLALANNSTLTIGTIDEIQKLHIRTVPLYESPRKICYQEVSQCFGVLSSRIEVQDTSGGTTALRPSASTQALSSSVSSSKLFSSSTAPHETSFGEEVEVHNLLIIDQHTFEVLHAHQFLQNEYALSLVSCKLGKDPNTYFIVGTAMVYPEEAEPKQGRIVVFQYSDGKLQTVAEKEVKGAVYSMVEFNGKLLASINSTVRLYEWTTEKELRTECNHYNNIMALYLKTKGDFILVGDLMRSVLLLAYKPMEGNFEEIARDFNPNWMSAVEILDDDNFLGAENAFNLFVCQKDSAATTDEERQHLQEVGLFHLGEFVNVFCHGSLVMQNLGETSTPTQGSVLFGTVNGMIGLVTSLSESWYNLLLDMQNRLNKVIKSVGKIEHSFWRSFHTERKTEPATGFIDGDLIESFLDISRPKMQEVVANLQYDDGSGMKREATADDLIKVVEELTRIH
How it was run: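 Cultured cells were rinsed once in cold PBS and lysed in cold RIPA buffer containing protease and phosphatase inhibitors, with gentle agitation at 4° C. for 30 min. Lysates were centrifuged at 13,000 rpm for 10 min at 4° C., and protein was quantified by BCA. Samples were then separated by SDS-PAGE, detected with ECL, and the CDK4 bands quantified in Image Lab.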

[4] = tested on: cyclin D1, cyclin D2, cyclin D3, CDK4 and CDK6; assay: Immunoblotting of cyclin D and CDK4/6 protein levels in Calu-1 cells; format: cell-based
Description: (§2) Calu-1 (FIG. 2A) or BT-549 (FIG. 2B) cells were treated with CPD-002, CPD-004, or palbociclib at indicated concentrations for 16 hours.
Calu-1 cells were treated with CPD-031 at indicated concentrations for 16 hours.
Calu-1 cells were treated with CPD-002 or CPD-031 at 500 nM or 100 nM, respectively for indicated period of time.
Calu-1 cells were pre-treated with DMSO, 20 μM MG-132 (MG), 5 μM MLN4924 (MLN) or 1 μM TAK-243 (TAK) for 2 hours, and subsequently incubated with 500 nM CPD-002, 500 nM CPD-004, or 100 nM CPD-031 for another 4 h or 2 h prior to immunoblotting (FIG. 5A-5B).
Calu-1 cells were treated with a dose range of negative control compounds CPD-042 or CPD-049 for 16 hours (FIG. 6A-6B).
Calu-1 cells were treated with reference compounds CP-10 or BSJ-03-123 at indicated concentrations for 8 hours.
(§3) Cultured cells were washed with cold PBS once and lysed in cold RIPA buffer supplemented with protease inhibitors and phosphatase inhibitors (Beyotime Biotechnology). The solutions were then incubated at 4° C. for 30 min with gentle agitation to fully lysed cells. Cell lysates were centrifuged at 13,000 rpm for 10 min at 4° C. and pellets were discarded. Total protein concentrations in the lysates were determined following BCA assays (Beyotime Biotechnology). Cell lysates were mixed with Laemmli loading buffer and heated at 99° C. for 5 min. Proteins were resolved on SDS-PAGE and visualized using Western ECL Substrate kits on a ChemiDoc MP Imaging system (Bio-Rad). Protein bands were quantitated using the Image Lab software provided by Bio-Rad.

[5] = tested on: cyclin D1, cyclin D2, cyclin D3, CDK4 and CDK6; assay: Immunoblotting of cyclin D and CDK4/6 protein levels in BT-549 cells; format: cell-based; conditions: indicated concentrations, 16 hours
Description: as §2, §3

[6] = tested on: Rb phosphorylation, cleaved caspase-3; assay: Immunoblotting of downstream Rb phosphorylation and cleaved caspase-3 in Calu-1 or BT-549 cells; format: cell-based; conditions: 16 hours
Description: as §2, §3

P300 and CBP [7] = assay: Immunoblot of P300 and CBP protein levels in LNCaP, Calu-1, NCI-H1703 or MM.1R cells; format: cell-based; conditions: Calu-1, NCI-H1703 or MM.1R cell lines, 8 hours
From the text: Additional exemplary heterobifunctional compounds were designed to modulate the protein levels of either P300/CBP, or BRD4, and characterized in multiple cell lines. […] Taken together, DDB1 ligands conjugating with different target ligands may modulate the cellular target protein levels of cyclin D, CDK4/6, P300/CBP and BRD4.

P300/CBP = P300/CBP cellular protein degradation; format: cell-based
How it was run: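 Treated cells lysed in RIPA buffer with protease and phosphatase inhibitors, protein normalized by BCA assay. P300/CBP levels assessed by SDS-PAGE Western blot with ECL detection and band densitometry.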

P300 and CBP [8] = assay: Immunoblotting of P300 and CBP protein levels in multiple cell lines; format: cell-based; conditions: LNCaP, Calu-1, NCI-H1703, or MM.1R cells, 8 hours
Description: LNCaP, Calu-1, NCI-H1703, or MM.1R cells were treated with CPD-191 at indicated concentrations for 8 hours.
as §3

[9] = tested on: cyclin D1, cyclin D3, CDK4; assay: Immunoblot of cyclin D and CDK4 degradation in T47D cells; format: cell-based; conditions: 48 hours, CPD-380 vs CPD-343
Description: (§4) FIG. 10A-10B show immunoblots of cyclin D1, cyclin D3, CDK4, p-Rb, FoxM1 and cyclin A2 proteins expressed by T47D cells after treatment with a dose range of heterobifunctional compound CPD-343, or its control compound CPD-380 for 48 hours (FIG. 10A), and anti-viability curves of T47D cells in the presence of CP-343, or CPD-380 for 6 days (FIG. 10B).
as §1

T47D cells [10] = assay: Anti-viability / anti-proliferation in T47D cells; format: cell-based; conditions: 6 days, CPD-380 vs CPD-343
Description: as §4, §1

T47D cells [11] = assay: Flow cytometric analysis of Annexin V/7-AAD stained T47D cells; format: cell-based; conditions: 6 days
Description: ER^+ breast cancer T47D cells were treated with DMSO, palbociclib, heterobifunctional compound CPD-343, or negative control compound CPD-380 for 6 days at doses approximating IC50 and IC90 concentrations determined in FIGS. 10A and 13. Cells were harvested by trypsinization, staining was carried out using the Annexin V Apoptosis Detection Kit. The percentages of early apoptotic (Annexin V^+7-AAD^−, lower right quadrant), late apoptotic (Annexin V^+7-AAD^+, upper right quadrant) and necrotic cells (Annexin V-7-AAD^+, upper left quadrant) are indicated on dot plots. […] Furthermore, we developed one ER^+ breast cancer T47D model with acquired resistance after long period of treatment with 1 μM palbociclib (over IC90). Cells were deemed resistant when growing in the presence of palbo at the same rate as parental cells. Palbo resistance was determined by CellTiter-Lumi cell viability assay.

Cyclin D = assay: Immunoblotting of degradation in T47D cells; format: cell-based; conditions: dose range, 48 hours
Description: T47D cells were treated with a dose range of heterobifunctional compound CPD-343 or its negative control compound CPD-380 for 48 hours.
as §3

T47D cells [12] = assay: Cell viability assay, T47D; format: cell-based; conditions: 10-point serial dilution, 6 days
Description: T47D cells were seeded in 96-well plates and treated with of CP-343, or CPD-380 following a 10-point serial dilution for 6 days.
Cells were seeded at a density of 2,000-5,000 cells per well in 96-well assay plates and treated with test compounds following a 10-point serial dilution for 3-6 days. Cell viability was determined using the CellTiter-Lumi assay kit according to the manufacturer's instructions. The dose-response curves were determined and IC50 values were calculated using the GraphPad Prism software following a nonlinear regression (least squares fit) method. Data presented was mean±standard deviation (SD) unless otherwise indicated.

T47D cells [13] = assay: Annexin V apoptosis flow cytometry in T47D cells; format: cell-based; conditions: 6 days, doses approximating IC50 and IC90
Description: T47D cells were treated with DMSO, palbociclib, heterobifunctional compound CPD-343, or negative control compound CPD-380 for 6 days at doses approximating IC50 and IC90 concentrations as indicated. Cells were harvested by trypsinization, staining was carried out using the Annexin V Apoptosis Detection Kit.
Assays were performed on the CytoFLEX Cytometer (Beckman Coulter), and data were analyzed using CytExpert software. For cell death and apoptosis analysis, cells were harvested by trypsinization, staining was carried out using the Annexin V Apoptosis Detection Kit (BD Biosciences). Briefly, cells were resuspended in 1× binding buffer and incubated with fluorochrome-conjugated Annexin V and 7-AAD for 15 min in darkness at room temperature.

SMILES: CC(=O)c1c(C)c2cnc(Nc3ccc(N4CCN(CC(=O)NCCOCCOCCOCCOCCOCCNc5ccc(C(=O)Nc6nccs6)c(C)c5)CC4)cn3)nc2n(C2CCCC2)c1=O [CPD-004, 4-((1-(4-(6-((6-Acetyl-8-cyclopentyl-5-methyl-7-oxo-7,8-dihydropyrido[2,3-d]pyrimidin-2-yl)amino)pyridin-3-yl)piperazin-1-yl)-2-oxo-6,9,12,15,18-pentaoxa-3-azaicosan-20-yl)amino)-2-methyl-N-(thiazol-2-yl)benzamide]
- Kd (DDB1 [1]): 9.4 µM
- reduction of cyclin D1, cyclin D2, and cyclin D3 protein levels [2]: particularly effective
- Kd (DDB1 [3]): < 20 µM
- CyclinD1 Degradation (200 nM) (cyclin D1): A (protein percentage degradation >=80%)
- inhibition at 0.2 µM (CDK4): 30 to 50%
- cyclin D degradation after pretreatment with MG-132, MLN4924 or TAK-243 ([4]; 2 hours pre-treatment, then 500 nM CPD-002, 500 nM CPD-004 or 100 nM CPD-031 for 4 h or 2 h): diminished the cyclin D degradation effect
- cyclin D1, cyclin D2, cyclin D3, CDK4 and CDK6 protein levels ([4]; indicated concentrations, 16 hours): reduced cyclin D1, cyclin D2, cyclin D3, CDK4 and CDK6 protein levels in a concentration-dependent manner
- cyclin D1, cyclin D2, cyclin D3, CDK4 and CDK6 protein levels [5]: reduced cyclin D1, cyclin D2, cyclin D3, CDK4 and CDK6 protein levels in a concentration-dependent manner
- downstream Rb phosphorylation and cleaved caspase-3 [6]: inhibited downstream Rb phosphorylation and induced cleaved caspase-3 in a concentration-dependent manner

SMILES: CC(=O)N1CCc2c(c(N3CCCc4cc(-c5cnn(C)c5)c(C(F)F)cc43)nn2C2CCN(CC(=O)NCCCCNc3ccc(C(=O)Nc4ncc(C)s4)c(C)c3)CC2)C1 [CPD-191]
- DC50 (P300 and CBP [7]): < 0.01 µM
- reduction of P300 and CBP protein levels (P300 and CBP [7]; dose range): significantly reduced
- P300/CBP Degradation (100 nM) (P300/CBP): A (degradation activity >= 80%)
- P300 and CBP protein levels (P300 and CBP [8]): reduced P300 and CBP protein levels in a concentration-dependent manner

SMILES: CNc1ccc(C(=O)Nc2ccc(OC)nn2)c(NC(=O)CCOCCOCCNC(=O)CN2CCN(c3ccc(N(C)c4ncc5c(C)c(C(C)=O)c(=O)n(C6CCCC6)c5n4)nc3)CC2)c1 [CPD-380]
- decrease of degradation potency versus corresponding active compound [9]: > 15 fold
- decrease of cellular anti-proliferation activity versus corresponding active compound (T47D cells [10]): > 20 fold
- Annexin V+ population (T47D cells [11]; 10 nM): 7.1%
- Annexin V+ population (T47D cells [11]; 200 nM): 28.6%
- degradation potencies compared with corresponding active heterobifunctional compound (Cyclin D): much weaker degradation potencies
- cell viability (cellular anti-proliferation activity) (T47D cells [12]): much weaker cellular anti-proliferation activities
- effect on cell apoptosis (T47D cells [13]): much less effect on cell apoptosis
